Five compounds from patent US20260027071A1, “COMPOSITION FOR PROMOTING COLLAGEN PRODUCTION COMPRISING AMIDATED AMINO ACID” (KYUNGPOOK NATIONAL UNIVERSITY INDUSTRY-ACADEMIC COOPERATION …, priority 2022, published 2026) can be followed below.

Entries after “also recorded” stand apart in the source; their conditions may differ.

Series [1] has as its system human follicle dermal papilla cells (HFCPC). The series is described as follows: Collagen protein (Sircol Collagen Assay) in human follicle dermal papilla cells. Type of series: cell-based. The note with it: 1 mM. How it is done: (§1) The collagen protein levels in the conditioned media were evaluated using the Sircol™ Collagen Assay (Biocolor, Antrim, UK) according to the manufacturer's instructions. […] After discarding the media, the cells were washed with 500 μL of phosphate-buffered saline (PBS), then incubated in 1 mL of serum-free media for another 24 hours. A 1.0 mL media sample (either conditioned media or fresh media as a negative control) was transferred to a microcentrifuge tube, mixed with 100 μL of collagen isolation and concentration reagent, and incubated overnight at 4° C. The samples were centrifuged at 13,000×g for 10 minutes at 4° C., and the supernatant was carefully removed using a pipette without disturbing the pellet. Each tube was then added with 500 μL of Sircol dye reagent, inverted five times, and shaken at room temperature for 30 minutes. After centrifugation, the supernatant was discarded, and the pellet was washed with 500 μL of cold acid-salt washing reagent, followed by another centrifugation step. The pellet was then dissolved in 250 μL of alkali reagent, and a 200 μL portion was transferred to a 96-well plate. The optical density of the solution was read at 555 nm using a Spectrostar Nano microplate reader (BMG LABTECH GmbH, Ortenberg, Germany).

In series [2] the test system is human osteoblasts (HOB). Kind of series: Collagen protein (Sircol Collagen Assay) in human osteoblasts. The class given is cell-based. To be noted: 1 mM. How it is done: as §1
Series [3] deals with human articular chondrocytes (HAC). The series is described as follows: Collagen protein (Sircol Collagen Assay) in human articular chondrocytes. The class given is cell-based. The note with it: for increase in collagen production compared to the control: absence of TGF-β1. The procedure: as §1
Series [4] shares this test system. The series is described as follows: Cell viability / proliferation (MTT assay) in human articular chondrocytes. The class given is cell-based. The note with it: for cell viability compared to the control group: concentration series (FIGS. 13g to 13l). The procedure: The cell viability was evaluated using the MTT assay.
For orientation: Tetrazolium dyes change colour on reduction, which living cells bring about.

Series [5] concerns Human dermal fibroblasts (HDF). The series is described as follows: Cell viability / proliferation (MTT assay) in human dermal fibroblasts. The note with it: for cell proliferation (MTT reduction): concentration series (FIGS. 13a to 13f).
Protocol: (§2) Human dermal fibroblasts (HDF) extracted from adult skin were obtained from Cascade Biologics (Portland, OR, USA), and human articular chondrocytes (HAC), human follicle dermal papilla cells (HFCPC), human aortic endothelial cells (HAoEC), and human osteoblasts (HOB) were obtained from PromoCell (Heidelberg, Germany). The cells were cultured in a closed incubator at 37° C. in humidified air comprising 5% CO2. The growth medium for HDF consisted of Iscove's Modified Dulbecco's Medium (IMDM) (Gibco BRL, Grand Island, NY, USA) supplemented with 10% fetal bovine serum (Hyclone, South Logan, UT) and 1% antibiotics (100 U·mL^−1 penicillin, 0.1 mg·mL^−1 streptomycin).
(§3) The cell viability was evaluated using the MTT assay. Briefly, HDF (1×10^4 cells per well), HAC (5×10^3 cells per well), HFDPC (1×10^4 cells per well), HAoEC (5×10^3 cells per well), and HOB (2×10^3 cells per well) were cultured in growth media in a 96-well culture plate for 24 hours, followed by treatment with each drug for 48 hours. After discarding the media, the cells were incubated at 37° C. for 2 hours in fresh growth media (100 μL) containing 1 mg·mL^−1 MTT (Amresco, Solon, OH, USA). The media was removed by aspiration, and the formazan dye accumulated inside the cells was dissolved in 100 μL of dimethyl sulfoxide. The absorbance of the solution was measured at 570 nm using a Spetrostar Nano microplate reader (BMG LABTECH GmbH, Ortenberg, Germany).
Series [6] relates to human aortic endothelial cells (HAoEC). Kind of series: Collagen protein (Sircol Collagen Assay) in human aortic endothelial cells. The class given is cell-based. To be noted: 1 mM. How it is done: as §1
The test system of series [7] is human dermal fibroblasts. The series is described as follows: Wound healing (wound closure) assay, Oris cell migration kit. Type of series: cell-based. To be noted: HDF. The procedure: Wound closure analysis was performed using the Oris™ Universal Cell Migration Assembly kit (Platinus Technologies, WI, USA) according to the manufacturer's instructions. The Oris™ stoppers were inserted into each well of the Oris™-compatible 96-well plate, and the plate was inverted to check for complete stopper attachment. A suspension of human dermal fibroblasts in IMDM was added to each well (1×10^4 cells in 100 μL per well) and incubated for 12 hours to allow cell attachment. Then, the stoppers were removed using the stopper tool, and the medium was aspirated using a pipette. The wells were gently washed with 100 μL PBS to remove unattached cells, and the attached cells were treated with drugs in 100 μL culture medium for the specified time, respectively. Images of the wounds were obtained using a phase-contrast microscope (Eclipse TS 100, Nikon Instruments Inc., Melville, NY, USA). The wound areas in the images were quantified using the NIH Image J program. Wound closure (%) was calculated using the following equation: Wound closure (%)=[(A0−At)/A0]×100, where A0 is the area of the original wound and At is the wound area measured at the specified time.

The test system of series [8] is Human dermal fibroblasts (HDF). The series is described as follows: Collagen protein in conditioned media (Sircol Collagen Assay) of human dermal fibroblasts. Type of series: cell-based. The note with it: for collagen production (collagen levels secreted into the media): HDF treated at 1 mM, result in words. How it is done: as §1
In series [9] the test system is Human dermal fibroblasts (HDF). To be noted: 48 h.
Protocol: as §2, §3
Setting [10] is: HDF, 1 mM each, absence of TGF-β1 (FIG. 5a).
Where [11] appears, read: HDF, concentration series (FIGS. 13a to 13f).

With `Cl.NCC(N)=O` [glycinamide, Glycinamide HCl], the collagen production entry in series [1] is reported as “most effective among the amidated amino acids”; in [2] it was “most effective among the amidated amino acids”; in series [3] (0.5 mM) it was “enhancing collagen production”; in series [3] (1 mM), “most effective among the amidated amino acids”; in series [6], “most effective among the amidated amino acids”; in series [8] (setting [11]), “increased collagen production in a concentration-dependent manner”. In series [2], this compound returned a collagen production effect of 433.8%. For the same compound, the “increase in collagen production compared to the control” value was found to be 181.3% in [3] (0.5 mM); 139.2% in series [8] (HDF, 0.5 mM, absence of TGF-β1); 68.2% in series [8] (setting [10]). Further, in series [3] (2 mM), the “increase in collagen production (greatest effect)” value was found to be 238.6%. Also, the “cell viability compared to the control group” value in series [4] (HAC) was “slightly but significantly increased cell viability”. For the same compound, the cell viability entry in series [5] (HDF treated at 1 mM, result in words) is reported as “no significant change in cell viability”. Also, the “cell proliferation (MTT reduction)” value in [5] (HDF) is listed as “did not affect cell proliferation”. Also, the entries for the “change in wound closure induced by treatment” value in series [7] (24 hours after treatment) and in series [7] (after 12 hours of treatment) were 19.2% and 6.3%, respectively. The wound closure result in series [7] (treated alone, up to 48 hours (FIG. 8b)) is “promoted wound closure”. Also, the “collagen production (collagen levels secreted into the media)” value in series [8] (HCl) was “most effective; also recorded: highest collagen production-promoting effect”; in series [8] (listed as glycylamine, HCl), “superior collagen-promoting effect compared to all free amino acids”. The “change in collagen production, individual treatment” value was 27.2% in series [8] (HDF, 100 μM) and 75.7% in series [8] (HDF, 1000 μM). Also, the “change in collagen production induced by individual treatment” value in series [8] (HDF, FIG. 7b, concentration not given) worked out at 67.4%.

Turning to `Cl.N[C@H]1C(O)O[C@H](CO)[C@@H](O)[C@@H]1O` (stereo partly drawn) [glucosamine, glucosamine HCl, reference compound], the collagen production result in series [3] (0.5 mM) and in series [8] (setting [11]) was “increased collagen production” in each case. In addition, the “increase in collagen production compared to the control” value in series [3] (0.5 mM) was determined as 147.6%; in series [8] (HDF, 0.5 mM, absence of TGF-β1), 118.6%. The cell viability entry in series [4] (HAC, 0.5 mM) is “without affecting cell viability”. The “cell proliferation (MTT reduction)” value in [5] (HDF) is listed as “did not affect cell proliferation”.

As for `O=C1O[C@H]([C@@H](O)CO)C(O)=C1O` [ascorbic acid, reference compound], the “concentrations with no effect on cell viability” value in [9] was no more than 1000 µM. The “change in wound closure induced by treatment” value in series [7] (24 hours after treatment) was found to be 9.1%; in series [7] (after 12 hours of treatment), 2.5%. For the same compound, the “collagen production (collagen levels secreted into the media)” value in series [8] is listed as “increased collagen production”. Moreover, the “increase in collagen production compared to the control” value in series [8] (setting [10]) was 23.1%. Further, in series [8] (HDF, 3 and 5 mM), the collagen production entry is listed as “significantly reduced”. Moreover, the “concentrations at which collagen production increased” value in series [8] (HDF, non-cytotoxic concentrations (FIG. 10b)) fell in the range of 10 to 1000 µM.

For `C[C@H]1[C@H](C)CC[C@]2(C(=O)O)CC[C@]3(C)C(=CC[C@@H]4[C@@]5(C)C[C@@H](O)[C@H](O)[C@@](C)(CO)[C@@H]5[C@H](O)C[C@]43C)[C@H]12` [madecassic acid], in [9], the “concentrations that reduced cell viability” value is on record as “above 300 μM” and the “concentrations with no effect on cell viability” value was “below 100 μM”. The collagen production entry in series [8] (HDF, 10 μM) was “decreased”.

“TGF-β1: Recombinant human TGF-β1 protein purchased from R&D Systems”: the collagen production entry in series [3] (TGF-β1 10 ng mL^−1 alone) is “effect of enhancing collagen production”; in series [3] (TGF-β1 up to 10 ng mL-1), “improved collagen production in a dose-dependent manner”; in series [8] (HDF, TGF-β1 10 ng mL^−1 alone), “effect of enhancing collagen production”; in series [8] (setting [11]) it was “collagen production enhancement effect that surpassed its cell proliferation effect”. Further, the “cell proliferation compared to the control” value in series [4] (HAC (FIGS. 14a to 14d)) and in series [5] (HDF (FIGS. 14a to 14d)) was “better cell proliferation compared to the control” throughout. For the same compound, the “cell viability compared to the control group” value in [4] (HAC) was “slightly but significantly increased cell viability”. The “cell proliferation (MTT reduction)” value in [5] (HDF) is reported as “increased the proliferation”. Moreover, in series [5] (HDF, TGF-β1 10 ng mL^−1, or ascorbic acid 1 mM + glycinamide 1 mM (FIG. 5b)), the “increase in number of viable cells compared to the control” value is reported as 44.5%. The “wound closure compared to the control” value in series [7] (12 and 24 hours post-treatment) was “significantly improved wound closure”.
